15 compounds from patent publication US20240343666A1, “PERINAPHTHENONE COMPOUND AND USE THEREOF” (INSTITUTE OF MEDICINAL BIOTECHNOLOGY, CHINESE ACADEMY OF …, priority 2021, published 2024) can be followed below.

Each structure is given as a SMILES string. Where two headings read alike, the source gives them in different places.

The target in series [1] is influenza virus PA protein (UniProt P15659). The series is classed as cell-based. The following applies: read-out: PA remaining EC50.
The target in series [2] is TRIM25 (Homo sapiens, UniProt Q14258). In words: Biolayer interferometry (BLI) binding to TRIM25. To be noted: in vitro. The source says: (§1) To further investigate the mechanism of degradation of PA protein by compound C1, the inventors tested the binding ability of the compound to TRIM25 protein and PA protein using biolayer interferometry (BLI). […] Meanwhile, the compounds also have the ability of binding PA in vitro.
(In BLI a coated tip is dipped into the sample, and binding shifts an interference pattern.)

Series [3] has as its system influenza A virus (IAV) A/WSN/33 (H1N1). In words: microbe, parasite or virus in culture. The series is classed as cell-based. To be noted: read-out: Anti-influenza activity EC50.
Series [4] is described as follows: Cell viability assay (CCK-8). The series is classed as cell-based. To be noted: human; 293T-Gluc cells, CCK-8, 48 h. The source says: CCK-8 (Cell Counting Kit-8) kit is a rapid and highly sensitive detection kit based on WST-8 (water-soluble tetrazolium salt, chemical name: 2-(2-methyloxy-4-nitrophenyl)-3-(4-nitrophenyl)-5-(2,4-disulfophenyl)-2H-tetrazole monosodium salt) and widely applied to cell proliferation and cytotoxicity. WST-8 is a compound similar to MTT, and can be reduced by some dehydrogenases in mitochondria to produce orange-yellow formazan in the presence of an electron coupling reagent. The more and faster the cell proliferation, the darker the color; and the greater the cytotoxicity, the lighter the color. For the same cells, there is a linear relationship between the depth of color and the number of cells. The number of living cells can be indirectly reflected by measuring the light absorption value via an enzyme-linked immunosorbent assay instrument at a wavelength of 450 nm. 293T-Gluc cells were inoculated in a 96-well plate at 2.5×10^4 cells per well, and incubated in 100 μL of DMEM culture medium containing 10% FBS. 24 h after cell plating, 1 μL of the gradiently diluted test compound was added per well (the test compound was dissolved in DMSO and diluted with DMSO). Meanwhile, a blank control (only 100 μL of DMEM culture medium was added), a positive control (1 μL Ribavirin was added), and a negative control (1 μL DMSO was added) were set, and incubated at 37° C. for 48 h. The 96-well plate was taken out, and 10 μL of CCK-8 was added to each well. […] The experiment was repeated three times.

The target of series [5] is T1, PA protein (Influenza A virus, UniProt P15659). In words: Biolayer interferometry (BLI) binding to PA. To be noted: in vitro.
Text: as §1

The target of series [6] is T1, PA protein. The series is classed as cell-based.
In series [7] the target is T1, PA protein. In words: In vitro ubiquitination test. Format: biochemical.
Series [8] addresses T1, PA protein. In words: Ubiquitination of PA protein in HEK293T cells (immunoprecipitation, Western Blotting). The series is classed as cell-based. (In general: A western blot detects proteins with antibodies after separation by electrophoresis.)
Series [9] concerns the target TRIM25 with PA protein (UniProt P15659+Q14258). In words: Interaction of TRIM25 with PA in HEK293T cells (co-immunoprecipitation). Format: cell-based.

Sequence of TRIM25 (Q14258 whole entry, species assumed): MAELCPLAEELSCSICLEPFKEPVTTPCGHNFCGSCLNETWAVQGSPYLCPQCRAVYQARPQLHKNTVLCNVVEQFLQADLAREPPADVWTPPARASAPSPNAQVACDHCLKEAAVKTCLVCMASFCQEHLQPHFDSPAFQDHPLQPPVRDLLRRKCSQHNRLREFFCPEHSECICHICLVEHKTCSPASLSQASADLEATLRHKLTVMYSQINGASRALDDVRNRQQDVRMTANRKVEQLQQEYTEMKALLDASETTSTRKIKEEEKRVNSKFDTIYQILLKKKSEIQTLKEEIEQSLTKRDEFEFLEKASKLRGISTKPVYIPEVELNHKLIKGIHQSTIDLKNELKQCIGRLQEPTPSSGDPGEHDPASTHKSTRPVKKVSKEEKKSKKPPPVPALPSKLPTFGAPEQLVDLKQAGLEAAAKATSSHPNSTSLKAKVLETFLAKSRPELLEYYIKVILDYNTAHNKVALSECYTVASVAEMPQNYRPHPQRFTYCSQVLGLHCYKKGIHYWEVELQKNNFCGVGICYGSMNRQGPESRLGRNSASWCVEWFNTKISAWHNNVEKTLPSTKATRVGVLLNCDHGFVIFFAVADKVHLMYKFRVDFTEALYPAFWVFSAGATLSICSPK

A word on the Kd: it is the equilibrium constant for the complex coming apart. For orientation: EC50 means the concentration at which the effect is half-maximal. Usually CC50 stands for the concentration that lowers cell viability or growth by half. As for `C/C(=C\CC/C(C)=C/C[C@]1(O)C(=O)c2c(O)cc(C)c3c(O)c(C)c(O)c(c23)C1=O)CC/C=C(\CCC1OC(C)(C)OC1(C)C)C(=O)O` (some centres unmarked) [Compound C8], the DC50 in series [1] was determined as 800 ± 120 nM. This compound also displayed a dissociation constant (Kd) in [2] of 12000 to 43000 nM. The EC50 in series [3] (Influenza A virus, 24 h) is 450 to 2220 nM; in [3], 550 ± 30 nM. Also, in series [4], the CC50 at 48 h was over 100000 nM.

Take `C/C(=C\C[C@]1(O)C(=O)c2c(O)cc(C)c3c(O)c(C)c(O)c(c23)C1=O)CC/C=C(\C)CCC(O)[C@@]1(C)CC[C@@H](C(C)(C)O)O1` (some centres unmarked) [Compound C9]: the DC50 in series [1] turned out to be 1040 ± 80 nM. The same compound came in with a Kd in series [2] of 12000 to 43000 nM. For the same compound, in [3], the EC50 amounted to 1020 ± 50 nM. The compound further showed a CC50 at 48 h in [4] of over 100000 nM.

As to `NC(=O)c1ncn([C@@H]2O[C@H](CO)[C@@H](O)[C@H]2O)n1` [Ribavirin, reference compound], the EC50 in series [3] (Influenza A virus, 24 h) turned out to be 27800 ± 650 nM. Moreover, in series [4], the CC50 at 48 h is over 100000 nM.

Turning to `C/C(=C\CC/C(C)=C/C[C@]1(O)C(=O)c2c(O)cc(C)c3c(O)c(C)c(O)c(c23)C1=O)C/C=C/C1(C)CCC(C(C)(C)O)O1` (some centres unmarked) [Compound C14], in series [1], the DC50 came to 1020 ± 30 nM. Besides, the Kd in [2] lay in the range of 12000 to 43000 nM. Moreover, the EC50 in series [3] came to 1060 ± 90 nM. In series [4], the CC50 at 48 h is over 100000 nM.

With `CC(C)=CCC/C(=C/CC/C(C)=C/CC/C(C)=C/C[C@]1(O)C(=O)c2c(O)cc(C)c3c(O)c(C)c(O)c(c23)C1=O)C(=O)O` [Compound C12], the DC50 in series [1] came to 1070 ± 100 nM. The same compound gave a Kd in series [2] of 12000 to 43000 nM. Besides, the EC50 in series [3] was found to be 920 ± 20 nM. In series [4], the CC50 at 48 h was over 100000 nM.

On to `CC(C)=CC1C/C(=C/CC/C(C)=C/CC/C(C)=C/C[C@]2(O)C(=O)c3c(O)cc(C)c4c(O)c(C)c(O)c(c34)C2=O)CO1` (some centres unmarked) [Compound C4], for which, in series [1], the DC50 turned out to be 1150 ± 170 nM. The compound further showed a Kd in series [2] of 12000 to 43000 nM. Besides, the EC50 in series [3] came out at 1250 ± 10 nM. The CC50 at 48 h in [4] was over 100000 nM.

For the compound `C/C(=C\CC/C(C)=C/C[C@]1(O)C(=O)c2c(O)cc(C)c3c(O)c(C)c(O)c(c23)C1=O)CC/C=C1/CCC(C(C)(C)O)OC1` (some centres unmarked) [Compound C13], the DC50 in series [1] turned out to be 710 ± 20 nM. The Kd in series [2] fell in the range of 12000 to 43000 nM. The EC50 in series [3] (Influenza A virus, 24 h) is 450 to 2220 nM; in series [3], 650 ± 10 nM. Moreover, in series [4], the half-maximal cytotoxic concentration (CC50) at 48 h is over 100000 nM.

`CC(C)=CCC/C(=C/CC/C(C)=C/CC/C(C)=C/C[C@]1(O)C(=O)c2c(O)cc(C)c3c(O)c(C)c(O)c(c23)C1=O)CO` [Compound C2]: the DC50 in [1] was determined as 650 ± 120 nM. Moreover, the Kd in series [2] was 12000 to 43000 nM; in [5], 58000 nM. Besides, the EC50 in series [3] (Influenza A virus, 24 h) is 450 to 2220 nM; in series [3] it was 580 ± 60 nM. The same compound came in with a CC50 at 48 h in [4] of over 100000 nM.

`C/C(=C\CC/C(C)=C/C[C@]1(O)C(=O)c2c(O)cc(C)c3c(O)c(C)c(O)c(c23)C1=O)CC/C=C(\CO)CC[C@@H](O)C(C)(C)O` [Compound C1]: the “Expression level of PA protein after treatment with proteasome inhibitor MG-132” value in [6] was “almost completely restored”. Further, in series [6], the “Restoration of PA protein after treatment with lysosome inhibitor ConA” value was “hardly affected”. For the same compound, the “Polyubiquitination level of PA protein in vitro” value in [7] is given as “can promote the polyubiquitination level of PA protein in vitro”. Moreover, the DC50 in series [1] was 440 ± 90 nM. In addition, the “Polyubiquitination level of PA protein in cells” value in [8] is on record as “can promote the polyubiquitination level of PA protein”. The Kd is 12000 to 43000 nM in series [2] and 11000 nM in [5]. The EC50 is 450 to 2220 nM in series [3] (Influenza A virus, 24 h) and 450 ± 40 nM in [3]. This compound returned a CC50 at 48 h in series [4] of over 100000 nM. The “Interaction of TRIM25 with PA protein” value in [9] is “can promote the interaction of TRIM25 with PA protein”.

In the case of `C/C(=C\C[C@]1(O)C(=O)c2c(O)cc(C)c3c(O)c(C)c(O)c(c23)C1=O)CC/C=C(\C)CCC(O)[C@@]1(C)CC[C@H](C(C)(C)O)O1` (relative stereo) [Compound C10], in series [1], the DC50 was 880 ± 80 nM. In [2], this compound had a Kd of 12000 to 43000 nM. The EC50 in series [3] came to 1220 ± 10 nM. In series [4], this compound registered a CC50 at 48 h of over 100000 nM.

In the case of `C/C(=C\CC/C(C)=C/C[C@]1(O)C(=O)c2c(O)cc(C)c3c(O)c(C)c(O)c(c23)C1=O)CC/C=C(\CO)CCC1OC(C)(C)OC1(C)C` (some centres unmarked) [Compound C7], the DC50 in series [1] worked out at 1050 ± 190 nM. In [2], this compound yielded a Kd of 12000 to 43000 nM. Moreover, the EC50 is 450 to 2220 nM in [3] (Influenza A virus, 24 h) and 780 ± 20 nM in series [3]. Also, the CC50 at 48 h in [4] was over 100000 nM.

Take `C/C(=C\CC/C(C)=C/C[C@]1(O)C(=O)c2c(O)cc(C)c3c(O)cc(O)c(c23)C1=O)CC/C=C(\CO)CC[C@@H](O)C(C)(C)O` [Compound C11]: in series [1], the DC50 stood at 620 ± 150 nM. In series [2], this compound came in with a Kd of 12000 to 43000 nM. The EC50 in [3] is 910 ± 80 nM. Besides, the CC50 at 48 h in [4] is over 100000 nM.

`CC(=O)OC(C=C(C)C)C/C(C)=C/CC/C(C)=C/CC/C(C)=C/C[C@]1(O)C(=O)c2c(O)cc(C)c3c(O)c(C)c(O)c(c23)C1=O` (some centres unmarked) [Compound C5]: the DC50 in series [1] turned out to be 730 ± 230 nM. In series [2], this compound came in with a Kd of 12000 to 43000 nM. Further, the EC50 in series [3] (Influenza A virus, 24 h) was 450 to 2220 nM; in series [3] it was 570 ± 80 nM. This compound also displayed a CC50 at 48 h in [4] of over 100000 nM.

As to `CC(C)=CCC/C(C=O)=C\CC/C(C)=C/CC/C(C)=C/C[C@]1(O)C(=O)c2c(O)cc(C)c3c(O)c(C)c(O)c(c23)C1=O` [Compound C3], in series [1], the DC50 came out at 1140 ± 260 nM. Moreover, the Kd in series [2] was in the range of 12000 to 43000 nM. Besides, the EC50 in series [3] amounted to 1420 ± 20 nM. In addition, in series [4], the CC50 at 48 h was over 100000 nM.

With `C/C(=C\CC/C(C)=C/C[C@]1(O)C(=O)c2c(O)cc(C)c3c(O)c(C)c(O)c(c23)C1=O)CC/C=C(\C)CC[C@@H](O)C(C)(C)O` [Compound C6], in series [1], the DC50 amounted to 2090 ± 520 nM. In [2], this compound had a Kd of 12000 to 43000 nM. Further, in [3], the EC50 is 2220 ± 40 nM. For the same compound, the CC50 at 48 h in series [4] is over 100000 nM.
